Measurements: patent US20230183239A1, “ECTONUCLEOTIDE PYROPHOSPHATASE-PHOSPHODIESTERASE 1 (ENPP-1) INHIBITORS AND USES THEREOF” (AbbVie Inc., priority 2017, published 2023)

Assays:
Format in all cases: biochemical
ENPP1 [1] = target: T1, ENPP1 (Homo sapiens, UniProt P22413); assay: ENPP1 enzyme assay with AMP-pNP substrate (hydrolysis of ATP analog); conditions: AMP-pNP substrate (ATP analog); Ki from IC50 by Cheng-Prusoff; read-out: ENPP1 Inhibition _AMP-pNP: Ki
T1 sequence (P22413 1-925): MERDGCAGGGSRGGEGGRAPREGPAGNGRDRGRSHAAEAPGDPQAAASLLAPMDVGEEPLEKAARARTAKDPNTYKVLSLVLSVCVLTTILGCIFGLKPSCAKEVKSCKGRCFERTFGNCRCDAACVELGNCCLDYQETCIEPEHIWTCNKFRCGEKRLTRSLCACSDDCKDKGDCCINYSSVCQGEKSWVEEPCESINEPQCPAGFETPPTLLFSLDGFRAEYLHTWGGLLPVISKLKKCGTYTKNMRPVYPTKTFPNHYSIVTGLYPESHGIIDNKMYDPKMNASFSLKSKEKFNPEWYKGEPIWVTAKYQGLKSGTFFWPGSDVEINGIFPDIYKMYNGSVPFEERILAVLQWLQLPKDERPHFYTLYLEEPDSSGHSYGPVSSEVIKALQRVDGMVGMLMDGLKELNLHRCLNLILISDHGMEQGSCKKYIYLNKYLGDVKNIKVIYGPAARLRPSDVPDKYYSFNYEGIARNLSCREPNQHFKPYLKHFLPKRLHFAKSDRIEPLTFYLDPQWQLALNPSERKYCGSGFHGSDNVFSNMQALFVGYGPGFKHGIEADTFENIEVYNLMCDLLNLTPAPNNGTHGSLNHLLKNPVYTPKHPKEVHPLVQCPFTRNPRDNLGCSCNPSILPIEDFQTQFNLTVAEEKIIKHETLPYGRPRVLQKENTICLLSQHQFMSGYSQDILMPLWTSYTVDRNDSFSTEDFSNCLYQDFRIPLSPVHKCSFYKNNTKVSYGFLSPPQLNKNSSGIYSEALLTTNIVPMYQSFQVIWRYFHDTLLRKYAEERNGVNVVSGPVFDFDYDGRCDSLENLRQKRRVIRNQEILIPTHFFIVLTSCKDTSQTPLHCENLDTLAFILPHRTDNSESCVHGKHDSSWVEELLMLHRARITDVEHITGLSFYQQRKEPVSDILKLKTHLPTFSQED
Experimental: The ENPP1 assay with AMP-pNP substrate is conducted in a buffer containing 50 mM Tris-HCl (pH 8.5)/ 250 mM NaCl/0.5 mM CaCl2/1 µM ZnCl2/0.1% DMSO. Inhibitors are added at final concentrations ranging between 10 µM and 30 pM depending on the compound. Duplicate wells are run at each inhibitor concentration. The final assay volume is 40 µL and human recombinant ENPP1 is present at 60 ng/well. The assay is initiated by the addition of substrate (300 µM AMP-pNP final concentration), and incubated for 20 minutes at 37° C. […] Each assay plate also includes wells with no enzyme added (MIN OD) and wells with no inhibitor added (MAX OD). The percent inhibition of ENPP1 for each sample is then calculated as: […]
IC50 values of compounds were calculated by entering the percent inhibition values into a sigmoidal variable slope nonlinear regression model in GraphPad Prism® software.

ENPP1 [2] = target: T1, ENPP1; assay: Indirect quantitation of 2',3'-cGAMP hydrolysis (AMP-Glo Assay kit); conditions: cGAMP substrate; Ki from IC50 by Cheng-Prusoff; read-out: ENPP1 Inhibition -cGAMP: Ki
ENPP1 [3] = target: T1, ENPP1; assay: Substrate selectivity ratio, inhibition of cGAMP hydrolysis versus ATP hydrolysis; conditions: ratio Ki AMP-pNP / Ki cGAMP
Experimental: The selectivity ratios for inhibition of cGAMP hydrolysis versus ATP hydrolysis were then calculated as follows: […]

| Compound | Ki (ENPP1 [1]) [nM] | Ki (ENPP1 [2]) [nM] | Substrate Selectivity: Ki_AMP-pNP/Ki_cGAMP (ENPP1 [3]) |
| --- | --- | --- | --- |
| COc1ccc2c(-c3ccc(CN)cc3)c(C#N)cnc2c1 [Example 277, 4-(4-(aminomethyl)phenyl)-7-methoxyquinoline-3-carbonitrile] | > 1000 | 100 to 1000 | >90.4 |
| COc1cc2ncnc(NC(C)c3ccc(NS(N)(=O)=O)cc3)c2cc1F (centres unmarked) [Example 236, N-(4-(1-((6-fluoro-7-methoxyquinazolin-4-yl)amino)ethyl)phenyl)sulfamide] | 100 to 1000 | < 100 | 109 |
| COc1cc2ncnc(N3CCC(CCNS(=O)(=O)NC(C)=O)CC3)c2cc1OC [Example 200, N-(N-(2-(1-(6,7-dimethoxyquinazolin-4-yl)piperidin-4-yl)ethyl)sulfamoyl)acetamide] | > 1000 | 100 to 1000 | >64.2 |
| COc1cc2nccc(-c3ccc(CN(O)C=O)cc3)c2cc1OC [Example 284, N-(4-(6,7-dimethoxyquinolin-4-yl)benzyl)-N-hydroxyformamide] | < 100 | < 100 | 28.6 |
| COc1ccc2c(N3CCC4(CC3)CCN(S(N)(=O)=O)C4)c(C#N)cnc2c1 [Example 248, 8-(3-cyano-7-methoxyquinolin-4-yl)-2,8-diazaspiro[4.5]decane-2-sulfonamide] | < 100 | < 100 | 48.6 |
| COc1ccc2c(-c3ccc(CNS(N)(=O)=O)cc3)ncnc2c1 [Example 226, N-(4-(7-methoxyquinazolin-4-yl)benzyl)sulfamide] | 100 to 1000 | < 100 | 29.5 |
| COc1cc2c(N3CCC(CCNS(N)(=O)=O)CC3)ncnc2cc1Cl [Example 185, N-(2-(1-(7-chloro-6-methoxyquinazolin-4-yl)piperidin-4-yl)ethyl)sulfamide] | > 1000 | 100 to 1000 | > 8.00 |
| COc1ccc2c(-c3ccc4c(c3)CN(S(N)(=O)=O)CC4)c(C#N)cnc2c1 [Example 249, 7-(3-cyano-7-methoxyquinolin-4-yl)-3,4-dihydroisoquinoline-2(1H)-sulfonamide] | > 1000 | 100 to 1000 | – |
| COc1ccc2c(-c3ccc4c(c3)CN(S(N)(=O)=O)C4)ccnc2c1 [Example 402, 5-(7-methoxyquinolin-4-yl)isoindoline-2-sulfonamide] | 100 to 1000 | < 100 | 46 |
| COc1ccc2c(Oc3ccc(S(N)(=O)=O)cc3)c(C(F)(F)F)cnc2c1 [Example 377, 4-((7-methoxy-3-(trifluoromethyl)quinolin-4-yl)oxy) benzenesulfonamide] | > 1000 | 100 to 1000 | >89 |
| COc1cc2c(NCc3ccc(S(N)(=O)=O)cc3)ncnc2cn1 [Example 247, 4-(((6-methoxypyrido[3,4-d]pyrimidin-4-yl)amino)methyl)benzenesulfonamide] | > 1000 | 100 to 1000 | 67.3 |
| COc1cc2ncnc(N(C)c3ccc(NS(N)(=O)=O)cc3)c2cc1OC [Example 190, N-(4-((6,7-dimethoxyquinazolin-4-yl)(methyl)amino)phenyl)sulfamide] | > 1000 | > 1000 | – |
| COc1cc2ncnc(N3CCC(CCN)CC3)c2cc1OC [Example 334, 2-(1-(6,7-dimethoxyquinazolin-4-yl)piperidin-4-yl)ethan-1-amine] | > 1000 | < 100 | >414 |
| COc1ccc2c(N3CCc4cc(NS(N)(=O)=O)ccc43)ncnc2c1 [Example 392, N-(1-(7-methoxyquinazolin-4-yl)indolin-5-yl)sulfamide] | > 1000 | < 100 | >133 |
| COc1cc2nccc(N3CCC(CCNS(N)(=O)=O)CC3)c2cn1 [Example 204, N-(2-(1-(7-methoxy-1,6-naphthyridin-4-yl)piperidin-4-yl)ethyl)sulfamide] | > 1000 | 100 to 1000 | > 39.4 |
| COc1ccc2c(N3CCc4cc(NS(N)(=O)=O)ccc43)ccnc2c1 [Example 59, N-(1-(7-methoxyquinolin-4-yl)indolin-5-yl)sulfamide] | < 100 | < 100 | 29.6 |
| COc1cc2ncnc(-c3ccc(CNS(N)(=O)=O)c(F)c3)c2cc1OC [Example 301, N-(4-(6,7-dimethoxyquinazolin-4-yl)-2-fluorobenzyl)sulfamide] | 100 to 1000 | < 100 | 34.2 |
| COc1ccc2c(Oc3ccc(NS(N)(=O)=O)c(Cl)c3)ccnc2c1 [Example 75, N-(2-chloro-4-((7-methoxyquinolin-4-yl)oxy)phenyl)sulfamide] | 100 to 1000 | < 100 | 41.3 |
| COc1ccc2c(Oc3ccc(CS(N)(=O)=O)cc3)ccnc2c1 [Example 312, (4-((7-methoxyquinolin-4-yl)oxy)phenyl)methanesulfonamide] | 100 to 1000 | < 100 | 28.2 |
| COc1cc(F)c2c(-c3ccc(CNS(N)(=O)=O)cc3)ccnc2c1 [Example 394, N-(4-(5-fluoro-7-methoxyquinolin-4-yl)benzyl)sulfamide] | > 1000 | < 100 | >95 |
| COc1ccc2ncnc(NCc3ccc(S(N)(=O)=O)cc3)c2c1 [Example 306, 4-(((6-methoxyquinazolin-4-yl)amino)methyl)benzenesulfonamide] | 100 to 1000 | < 100 | 22.4 |
| COc1cc2nccc(Nc3ccc(NS(=O)(=O)C(F)(F)F)cc3)c2cc1OC [Example 174, N-(4-((6,7-dimethoxyquinolin-4-yl)amino)phenyl)-1,1,1-trifluoromethanesulfonamide] | > 1000 | 100 to 1000 | – |
| NS(=O)(=O)NCCC1CCN(c2cc(-c3ccc4c(c3)OCO4)ncn2)CC1 [Example 10, N-(2-(1-(6-(benzo[d][1,3]dioxol-5-yl)pyrimidin-4-yl)piperidin-4-yl)ethyl)sulfamide] | > 1000 | > 1000 | – |
| COc1cc2ncnc(N3CCC4(CC3)CN(S(N)(=O)=O)C4)c2cc1OC [Example 30, 7-(6,7-dimethoxyquinazolin-4-yl)-2,7-diazaspiro[3.5]nonane-2-sulfonamide] | > 1000 | – | 39.4 |
| COc1ccc2c(c1)OCCN2c1ccc(CNS(N)(=O)=O)cc1 [Example 405, N-(4-(7-methoxy-2,3-dihydro-4H-benzo[b][1,4]oxazin-4-yl)benzyl)sulfamide] | – | > 1000 | – |
| COc1ccc2c(-c3ccc4c(c3)CNCC4)c(C#N)cnc2c1 [Example 276, 7-methoxy-4-(1,2,3,4-tetrahydroisoquinolin-7-yl)quinoline-3-carbonitrile] | – | > 1000 | – |
| COc1ccc2c(Oc3ccc(N(Cc4ccccc4)S(N)(=O)=O)cc3)ccnc2c1 [Example 309, N-benzyl-N-(4-((7-methoxyquinolin-4-yl)oxy)phenyl)sulfamide] | – | 100 to 1000 | – |
| COc1ccc2c(Oc3ccc(NS(N)(=O)=O)cc3OC)ccnc2c1 [Example 323, N-(3-methoxy-4-((7-methoxyquinolin-4-yl)oxy)phenyl)sulfamide] | – | > 1000 | – |
| COc1cc2nccc(-c3ccc(CNS(N)(=O)=O)cc3)c2cn1 [Example 415, N-(4-(7-methoxy-1,6-naphthyridin-4-yl)benzyl)sulfamide] | – | 100 to 1000 | – |
| COc1cc2nccc(Oc3ccc(NS(N)(=O)=O)cc3)c2cc1F [Example 282, N-(4-((6-fluoro-7-methoxyquinolin-4-yl)oxy)phenyl)sulfamide] | < 100 | < 100 | – |
